The values below come from US12509437B2, “Substituted thiophene carboxamides and derivatives thereof as microbicides” (Bayer Aktiengesellschaft, priority 2019, dated 2025).

In data set [1] the test system is Xanthomonas campestris pv. campestris. Nature of the data set: In vivo preventive test on Xanthomonas campestris pv. campestris (black rot on cabbage). Particulars: Xanthomonas campestris, sprayed 72 hours before inoculation, evaluated 8 or 10 days after inoculation, read-out: efficacy; for pest or weed control at 500 ppm: 500 ppm of active ingredient; for pest or weed control at 125 ppm: 125 ppm of active ingredient; for pest or weed control at 31 ppm: 31 ppm of active ingredient. In outline:
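Young cabbage plants sprayed preventively with compound formulated in acetone/DMSO/Tween and diluted in water, then inoculated 72 h later with a bacterial spray. Kept at 27° C, 95% relative humidity; disease scored after 8 or 10 days as % efficacy versus solvent-treated controls (0% = control, 100% = no disease).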

Data set [2] in a line: LogP by HPLC on reversed phase columns (EEC directive 79/831 Annex V.A8). It counts as physicochemical. Particulars: reversed phase HPLC columns. In outline: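 LogP derived from retention time, interpolated linearly between bracketing alkan-2-one standards (3 to 16 carbons). Where several values exist for one method, all are listed with "+"; UV spectra 200–400 nm at peak maxima gave lambda-max.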

For data set [3], the system named is Colletotrichum lindemuthianum. The data set can be described thus: Colletotrichum lindemuthianum in vitro cell test. It counts as cell-based. Particulars: 144 h, 6 days incubation, read-out: efficacy (inhibition of fungal growth; no direct activity); for inhibition at 5 ppm: 5 ppm of active ingredient; for inhibition at 20 ppm: 20 ppm of active ingredient. In outline: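 Inhibition of spore germination and mycelial growth in liquid culture, read spectrometrically after 6 days incubation. Compounds added from DMSO (final ≤1%) to spores in glucose/peptone/yeast-extract medium; absorbance compared with untreated controls.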

In data set [4] the test system is Xanthomonas campestris pv. campestris. Nature of the data set: Xanthomonas campestris pv. campestris in vitro cell test. It counts as cell-based. Particulars: 24 h of incubation, read-out: efficacy (inhibition of bacteria growth; no direct activity); for inhibition at 5 ppm: 5 ppm of active ingredient; for inhibition at 20 ppm: 20 ppm of active ingredient. In outline:
(§1)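 Bacteria from liquid pre-culture diluted to set OD in LB broth and exposed to compounds dissolved in DMSO (final ≤1%). After 24 h, growth read by absorbance; inhibition derived relative to compound-free control wells.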

Another data set has as its system Peronospora parasitica. The data set can be described thus: In vivo preventive test on Peronospora parasitica (Crucifer downy mildew) on cabbage. Particulars: Hyaloperonospora parasitica, 120 h, sprayed 72 hours before inoculation, evaluated 5 days after inoculation, read-out: efficacy; for pest or weed control at 31 ppm: 31 ppm of active ingredient; for pest or weed control at 125 ppm: 125 ppm of active ingredient; for pest or weed control at 500 ppm: 500 ppm of active ingredient. The essentials: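 Preventive protocol: spore inoculation followed compound spraying by 72 h, with 5 days' incubation at 20 °C and 100% relative humidity. Disease was rated 5 days after inoculation against solvent-only plants (0% = control level, 100% = disease-free).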

In another data set the test system is Uromyces appendiculatus. The data set can be described thus: In vivo preventive test on Uromyces appendiculatus (bean rust). To be noted: 240 h, sprayed 72 hours before inoculation, evaluated 10 days after inoculation, read-out: efficacy; for pest or weed control at 31 ppm: 31 ppm of active ingredient; for pest or weed control at 125 ppm: 125 ppm of active ingredient; for pest or weed control at 500 ppm: 500 ppm of active ingredient. In outline: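 Young bean plants sprayed with compound in acetone/DMSO/Tween diluted in water, then inoculated 72 h later with spore suspension. Incubated 24 h at 20° C., 100% RH, then 9 days at 20° C., 70-80% RH. Efficacy scored 10 days post-inoculation, 0% = untreated-control level, 100% = no disease.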

In data set [5] the test system is Colletotrichum lindemuthianum. Nature of the data set: In vivo preventive test on Colletotrichum lindemuthianum (Anthracnose on bean). Particulars: Colletotrichum lindemuthianum, 144 h, sprayed 72 hours before inoculation, evaluated 6 days after inoculation, read-out: efficacy; for pest or weed control at 500 ppm: 500 ppm of active ingredient; for pest or weed control at 31 ppm: 31 ppm of active ingredient; for pest or weed control at 125 ppm: 125 ppm of active ingredient. On the procedure:
The tested active ingredients were prepared by homogenization in a mixture of acetone/Dimethyl sulfoxide/Tween®, and then diluted with water to obtain the desired active material concentration.
The young plants of bean were treated by spraying the active ingredient prepared as described above. Control plants were treated only with an aqueous solution of acetone/Dimethyl sulfoxide/Tween®.
After 72 hours, the plants were contaminated by spraying the leaves with an aqueous suspension of Colletotrichum lindemuthianum spores. The contaminated bean plants were incubated for 24 hours at 20° C. and at 100% relative humidity and then for 5 days at 20° C. and at 90% relative humidity.
The test was evaluated 6 days after the inoculation. 0% means an efficacy which corresponds to that of the control plants while an efficacy of 100% means that no disease was observed.

For another data set, the system named is Alternaria alternata. The data set can be described thus: Alternaria alternata in vitro cell test. It counts as cell-based. To be noted: 120 h, 5 days incubation, read-out: efficacy (inhibition of fungal growth; no direct activity); for inhibition at 5 ppm: 5 ppm of active ingredient; for inhibition at 20 ppm: 20 ppm of active ingredient. In outline:
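A. alternata spores in glucose/peptone/yeast-extract liquid medium were exposed to DMSO-solubilized compound (final DMSO ≤1%). After 5 days incubation, mycelium growth read spectrometrically; inhibition derived from absorbance relative to fungicide-free control wells.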

Data set [6] has as its system salicylate responsive promoter sequence of the PR1 (pathogenesis-related protein I) gene (AT2G14610). Nature of the data set: Induction of defense gene expression in Arabidopsis thaliana (PR1 promoter-GFP reporter plants). Particulars: 72 h, 3rd day after spraying, mock treated leaves set as 1.00, read-out: relative fluorescence value. It counts as in vivo. In outline: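 Transgenic A. thaliana carrying GFP under the salicylate-responsive PR1 promoter, grown five days, then sprayed with compounds. Whole-plant fluorescence imaged and quantified on day 3 post-spray, expressed relative to mock-treated leaf background set at 1.00.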

Data set [7] relates to Pseudomonas syringae pv. tomato. The data set can be described thus: Pseudomonas syringae pv. tomato in vitro cell test. It counts as cell-based. Particulars: 20 ppm of active ingredient, 24 h of incubation, read-out: efficacy (inhibition of bacteria growth; no direct activity). In outline: as §1

What is called inhibition is the share of the control response that was lost under treatment.

Read-outs that look alike come from different tables or passages of the source.

For `CCOC(=O)C(CO)NC(=O)c1sc(Br)c(Br)c1C` (stereo not drawn) [I.006], the pest or weed control at 500 ppm in data set [1] was 80 to 89%; in the data set with Peronospora parasitica, 90 to 100%; in the data set with Uromyces appendiculatus it was 90 to 100%; in data set [5], 70 to 79%. In data set [2] (method [a]), this compound came in with a chromatographic logP of 2.58. The inhibition at 5 ppm (in data set [3]; in data set [4]; in the data set on Alternaria alternata) was ≤ 30% each time. Besides, the inhibition at 20 ppm (in data set [4]; in the data set on Alternaria alternata; in [7]) was ≤ 30% in each case. For the same compound, the pest or weed control at 31 ppm was 80 to 89% with Peronospora parasitica and 90 to 100% in the data set with Uromyces appendiculatus. In addition, the pest or weed control at 125 ppm in the data set with Peronospora parasitica was 90 to 100%; in the data set with Uromyces appendiculatus it was 80 to 89%. Besides, the fold induction at 75 ppm in data set [6] was > 2. Also, the fold induction at 300 ppm in [6] was > 2.
`CCOC(=O)[C@@H](NC(=S)c1sc(Br)c(Br)c1C)C(C)C` [I.023, ethyl N-[(4,5-dibromo-3-methyl-2-thienyl)carbonothioyl]valinate]: the pest or weed control at 125 ppm fell in the range of 80 to 89% in data set [1], 90 to 100% with Peronospora parasitica and 90 to 100% in [5]. Besides, the pest or weed control at 500 ppm is 70 to 79% in data set [1], 90 to 100% in the data set on Peronospora parasitica and 90 to 100% in data set [5]. The chromatographic logP in [2] (preparation examples, method not indicated, read-out: Log P) was found to be 5.22. For the same compound, the inhibition at 5 ppm (in data set [3]; in data set [4]; in the data set with Alternaria alternata) was ≤ 30% in each case. In addition, the inhibition at 20 ppm (in data set [3]; in data set [4]; with Alternaria alternata; in [7]) was ≤ 30% each time. The pest or weed control at 31 ppm in the data set on Peronospora parasitica was in the range of 80 to 89%; in data set [5], 90 to 100%. In [6], the fold induction at 300 ppm was > 2.
For the compound `COC(=O)C(Cc1c[nH]cn1)NC(=O)c1sc(Br)c(Br)c1C` (stereo not drawn) [I.033], the pest or weed control at 31 ppm in data set [1] lay in the range of 70 to 79%. For the same compound, the pest or weed control at 125 ppm in data set [1] was in the range of 70 to 79%; in the data set with Peronospora parasitica, 70 to 79%; in [5], 80 to 89%. Further, the chromatographic logP in data set [2] (method [a]) was determined as 1.5. The inhibition at 5 ppm (in data set [3]; in data set [4]; in the data set with Alternaria alternata) was ≤ 30% in each case. Moreover, the inhibition at 20 ppm (in data set [3]; in data set [4]; with Alternaria alternata; in data set [7]) was ≤ 30% each time. Moreover, the values for the pest or weed control at 500 ppm (in the data set on Peronospora parasitica; in the data set with Uromyces appendiculatus; in [5]) were 80 to 89%, 90 to 100% and 90 to 100%, respectively. For the same compound, the fold induction at 300 ppm in data set [6] was > 2.
Turning to `CCOC(=O)C(CO)NC(=O)c1sc(Cl)c(Cl)c1C` (stereo not drawn) [I.039], the results for the pest or weed control at 31 ppm (in data set [1]; in the data set with Peronospora parasitica) were 70 to 79% and 90 to 100%, respectively. For the same compound, the pest or weed control at 125 ppm lay within 70 to 79% in data set [1] and 90 to 100% in the data set on Peronospora parasitica. Besides, the chromatographic logP in [2] (method [a]) came to 2.48. In addition, the inhibition at 5 ppm (in data set [3]; in data set [4]; with Alternaria alternata) was ≤ 30% in each case. Also, the inhibition at 20 ppm (in [3]; in data set [4]; with Alternaria alternata; in data set [7]) was ≤ 30% each time. Further, the pest or weed control at 500 ppm in the data set on Peronospora parasitica lay within 90 to 100%; in the data set on Uromyces appendiculatus, 80 to 89%; in data set [5] it was 90 to 100%. For the same compound, the fold induction at 75 ppm in [6] is > 2. In addition, the fold induction at 300 ppm in data set [6] is > 2.
Turning to `CCOC(=O)C(COC)NC(=O)c1sc(Cl)c(Cl)c1C` (stereo not drawn) [I.044], the pest or weed control at 31 ppm in data set [1] lay in the range of 70 to 79%; in the data set with Peronospora parasitica, 90 to 100%; with Uromyces appendiculatus it was 90 to 100%; in data set [5], 80 to 89%. The pest or weed control at 125 ppm was in the range of 80 to 89% in data set [1], 90 to 100% in the data set with Peronospora parasitica, 90 to 100% in the data set with Uromyces appendiculatus and 90 to 100% in [5]. The chromatographic logP in data set [2] (method [a]) was 3.37. The inhibition at 5 ppm (in data set [3]; in [4]; with Alternaria alternata) was ≤ 30% throughout. The inhibition at 20 ppm in [4] and in [7] was ≤ 30% in each case. The pest or weed control at 500 ppm (with Peronospora parasitica; in the data set on Uromyces appendiculatus; in data set [5]) was 90 to 100% throughout. Further, in data set [6], the fold induction at 75 ppm was > 2. The fold induction at 300 ppm in data set [6] is > 2.
In the case of `Cc1c(C(=O)NC2(C(=O)O)CCC2)sc(Cl)c1Cl` [I.175], the results for the pest or weed control at 31 ppm (in data set [1]; in the data set with Peronospora parasitica) were 70 to 79% and 90 to 100%, respectively. In addition, the pest or weed control at 125 ppm is 80 to 89% in data set [1], 90 to 100% with Peronospora parasitica, 70 to 79% with Uromyces appendiculatus and 70 to 79% in [5]. The chromatographic logP in data set [2] (method [a]) was 2.62. Moreover, the inhibition at 5 ppm (in data set [3]; in [4]; in the data set on Alternaria alternata) was ≤ 30% throughout. Further, the inhibition at 20 ppm (in data set [3]; in data set [4]; with Alternaria alternata; in [7]) was ≤ 30% throughout. In addition, in data set [6], the fold induction at 75 ppm is > 2. In addition, the fold induction at 300 ppm in data set [6] is > 2.
